Our source for the IC50 values is US20240109898A1, “SUBSTITUTED PYRAZOLO[1,5-A]PYRIMIDINE-7-AMINE DERIVATIVES, COMPOSITIONS AND PHARMACEUTICAL USES THEREOF” (SHANGHAI HAIYAN PHARMACEUTICAL TECHNOLOGY CO., LTD., priority 2021, published 2024).

Each structure is given as a SMILES string.

Chain of CDK1/CycB (P06493 whole entry): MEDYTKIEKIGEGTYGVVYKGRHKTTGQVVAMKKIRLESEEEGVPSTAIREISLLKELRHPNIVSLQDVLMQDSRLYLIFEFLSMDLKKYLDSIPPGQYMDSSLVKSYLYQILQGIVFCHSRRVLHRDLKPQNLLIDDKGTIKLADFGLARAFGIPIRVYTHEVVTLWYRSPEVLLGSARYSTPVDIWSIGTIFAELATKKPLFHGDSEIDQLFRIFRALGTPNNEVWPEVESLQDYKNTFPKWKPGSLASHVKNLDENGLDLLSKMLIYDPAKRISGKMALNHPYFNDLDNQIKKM
Chain of CDK1/CycB (P14635 whole entry partner): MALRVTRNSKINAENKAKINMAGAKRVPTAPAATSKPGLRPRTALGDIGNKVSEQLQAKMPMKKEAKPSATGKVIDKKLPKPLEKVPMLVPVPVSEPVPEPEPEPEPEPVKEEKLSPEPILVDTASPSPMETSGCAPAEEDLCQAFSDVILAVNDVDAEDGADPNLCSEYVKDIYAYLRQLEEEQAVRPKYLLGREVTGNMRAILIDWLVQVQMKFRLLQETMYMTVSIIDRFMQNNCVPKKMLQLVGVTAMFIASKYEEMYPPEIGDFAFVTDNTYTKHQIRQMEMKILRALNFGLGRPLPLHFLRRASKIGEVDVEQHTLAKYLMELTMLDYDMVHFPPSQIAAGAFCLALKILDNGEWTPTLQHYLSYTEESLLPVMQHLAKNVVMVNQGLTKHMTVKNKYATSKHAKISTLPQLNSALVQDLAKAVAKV
Chain of CDK9/CycT (P50750 whole entry): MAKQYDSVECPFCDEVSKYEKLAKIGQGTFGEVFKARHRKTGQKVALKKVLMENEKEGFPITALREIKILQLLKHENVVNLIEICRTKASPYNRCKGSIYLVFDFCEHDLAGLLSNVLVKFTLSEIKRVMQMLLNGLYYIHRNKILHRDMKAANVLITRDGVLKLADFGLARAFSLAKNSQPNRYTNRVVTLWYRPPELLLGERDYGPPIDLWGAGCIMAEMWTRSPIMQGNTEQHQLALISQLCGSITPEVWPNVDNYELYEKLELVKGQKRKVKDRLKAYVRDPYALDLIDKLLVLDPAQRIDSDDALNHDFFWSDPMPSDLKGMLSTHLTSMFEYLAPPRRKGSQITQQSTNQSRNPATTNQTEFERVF
Chain of CDK9/CycT (O60563 whole entry partner): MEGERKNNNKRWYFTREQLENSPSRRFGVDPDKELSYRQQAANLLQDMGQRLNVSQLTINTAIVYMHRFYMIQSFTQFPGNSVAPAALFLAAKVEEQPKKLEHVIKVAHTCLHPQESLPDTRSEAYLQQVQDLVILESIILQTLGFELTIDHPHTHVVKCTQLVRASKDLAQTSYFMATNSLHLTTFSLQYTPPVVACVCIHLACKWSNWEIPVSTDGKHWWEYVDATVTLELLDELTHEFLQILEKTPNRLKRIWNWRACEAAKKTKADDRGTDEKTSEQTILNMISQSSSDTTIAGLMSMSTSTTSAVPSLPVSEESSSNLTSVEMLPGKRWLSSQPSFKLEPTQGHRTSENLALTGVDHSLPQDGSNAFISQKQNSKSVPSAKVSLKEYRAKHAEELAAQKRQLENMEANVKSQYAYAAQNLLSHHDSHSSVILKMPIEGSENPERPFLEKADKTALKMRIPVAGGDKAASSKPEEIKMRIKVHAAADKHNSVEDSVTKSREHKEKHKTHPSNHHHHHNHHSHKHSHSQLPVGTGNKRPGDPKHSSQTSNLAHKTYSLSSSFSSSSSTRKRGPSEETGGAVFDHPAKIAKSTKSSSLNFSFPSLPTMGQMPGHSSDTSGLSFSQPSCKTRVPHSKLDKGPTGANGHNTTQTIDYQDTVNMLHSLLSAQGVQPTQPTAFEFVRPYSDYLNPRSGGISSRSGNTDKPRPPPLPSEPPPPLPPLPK

The first assay concerns the target CDK1/CycB (Homo sapiens (Human), UniProt P06493). The assay is described as follows: LANCE Ultra kinase activity inhibition assay, CDK1/CycB. Format: biochemical. As to conditions: ATP 4 μM, highest compound concentration 10 μM. An excerpt:
(§1) In the following LANCE Ultra test methods, kinase reagents were purchased from Carna Bioscience, reaction substrates and detection reagents were purchased from PerkinElmer, and the remaining reagents were purchased from Thermo scientific.
(§2) The assay for each kinase includes three test groups, i.e., a background group (Blank), a non-inhibition group (PC), and compound testing group (Test). The components included in each test group were as follows:
(§3) Working concentrations of the respective components of the Test groups in different kinase reactions were as follows.
(§4) Compounds: 10 mM of the compound to be tested was dissolved at room temperature and diluted with DMSO to gradient concentrations, followed by diluting with deionized water to prepare a 4× working solution of the compound, and the content of DMSO was 2%. The highest concentration of compound used in the CDK1 and CDK2 assays was 10 μM, and that in CDK9 assay was 1 μM.
(§5) The working concentration of DMSO in the reaction was 0.5%.
(§6) The above-mentioned components, after being mixed, were placed on a shaker and incubated at room temperature in the dark for 1 h. 10 μL of test solution was then added to all test groups (including Blank, PC and Test groups).
(§7) After the test solution was added, the solution was placed on a shaker and continually incubated at room temperature for 1 h in the dark. […] The inhibition rate was calculated as below.
(§8) 2. Inhibition rate=(PCRatio-TestRatio)/(PCRatio-BlankRatio)*100%; and
(§9) 3. XLFIT 5.0 software (IDBS, UK) was used to fit a graph by using the logarithmic value of the compound concentration as the X-axis and the inhibition rater as the Y-axis, and a four-parameter model was used to calculate the half inhibitory concentration IC50 of the compound.
A general note: Time-resolved FRET reads energy transfer from a long-lived donor to a nearby acceptor.
By IC50 is commonly meant the point on the concentration scale where inhibition reaches its midpoint. A high value points to weaker potency. `N[C@H]1CC[C@H](Nc2cc(C(C3CC3)C3CC3)nc3ccnn23)C1` [Compound Z-1] showed an IC50 of 1.96 µM.
Same read-out and setting: in the case of `Cc1cnn2c(N[C@H]3CC[C@H](N)C3)cc(CC3CC3)nc12` [Compound Z-52] it was 7.15 µM; in that of `C[C@@H](c1cc(N[C@H]2C[C@H](N)C2)n2nccc2n1)C1CC1` [Compound Z-62-P2], 1.82 µM.
Same read-out and setting: in the case of `N[C@H]1CC[C@H](Nc2cc(C(C3CC3)C3CC3)nc3c(F)cnn23)C1` [Compound Z-15] it was 0.293 µM; in that of `CC(C)(c1cc(N[C@H]2CC[C@H](N)C2)n2nccc2n1)C1CC1` [Compound Z-12], 2.72 µM; in that of `CC(c1cc(NC2CCN(N)C2)n2ncc(Cl)c2n1)C1CC1` (stereo not drawn) [Compound Z-48], 1.47 µM.
The same measure, in the same setting: under `CCC(c1cc(N[C@H]2CC[C@H](NC(C)=N)C2)n2nccc2n1)C1CC1` (stereo partly drawn) [Compound Z-69] stands greater than 10 µM; under `CC(C)(c1cc(N[C@H]2CC[C@H](N)C2)n2nccc2n1)C1CCC1` [Compound Z-39], 2.48 µM; under `C=CCC(C)(C)c1cc(N[C@H]2CC[C@H](N)C2)n2nccc2n1` [Compound Z-57], 4.97 µM.
For `Cc1cnn2c(N[C@H]3CC[C@H](N)C3)cc(C(C)(C)C3CCC3)nc12` [Compound Z-40], the IC50 is greater than 10 µM.
Same read-out and setting: in the case of `CC(=N)N[C@H]1CC[C@H](Nc2cc(C(C3CC3)C3CC3)nc3c(F)cnn23)C1` [Compound Z-73] it was 2.57 µM; in that of `COC[C@H](c1cc(N[C@H]2CC[C@H](N)C2)n2nccc2n1)C1CC1` [Compound Z-44], greater than 10 µM; in that of `Cc1cnn2c(N[C@H]3CC[C@H](N)C3)cc([C@H](C)C3CC3)nc12` [Compound Z-32-P1], greater than 10 µM.
`CC(C)(c1cc(N[C@H]2CC[C@H](N)C2)n2ncc(F)c2n1)C1CC1` [Compound Z-36]: the midpoint of inhibition, the IC50, lay at 0.924 µM.
The same measure, in the same setting: in the case of `CC(C)(c1cc(N[C@H]2CC[C@H](N)C2)n2ncc(Cl)c2n1)C1CCC1` [Compound Z-46] it was 1.15 µM.
Same read-out and setting: in the case of `CC(C)c1cnn2c(N[C@H]3CC[C@H](N)C3)cc(C(C3CC3)C3CC3)nc12` [Compound Z-24] it was 2.53 µM; in that of `Cc1cnn2c(N[C@H]3CC[C@H](N)C3)cc([C@@H](C)C3(C)CC3)nc12` [Compound Z-26-P2], greater than 10 µM; in that of `N[C@H]1CC[C@H](Nc2cc(C(F)C3CC3)nc3ccnn23)C1` (stereo partly drawn) [Compound Z-53], 4.86 µM.

For another assay, the target named is CDK2/CycA (Homo sapiens (Human), UniProt P24941). Nature of the assay: LANCE Ultra kinase activity inhibition assay, CDK2/CycA. Format: biochemical. The note with it: ATP 10 μM, highest compound concentration 10 μM.
Excerpt: as §1, §2, §3, §4, §5, §6, §7, §8, §9
With `N[C@H]1CC[C@H](Nc2cc(C(C3CC3)C3CC3)nc3ccnn23)C1` [Compound Z-1], half-maximal inhibition (IC50) was put at 5.65 µM.
`Cc1cnn2c(N[C@H]3CC[C@H](N)C3)cc(CC3CC3)nc12` [Compound Z-52] showed a 50% inhibitory concentration (IC50) of 6.15 µM.
Same read-out and setting: under `C[C@@H](c1cc(N[C@H]2C[C@H](N)C2)n2nccc2n1)C1CC1` [Compound Z-62-P2] stands greater than 10 µM; under `N[C@H]1CC[C@H](Nc2cc(C(C3CC3)C3CC3)nc3c(F)cnn23)C1` [Compound Z-15], 0.367 µM.
In turn, `CC(C)(c1cc(N[C@H]2CC[C@H](N)C2)n2nccc2n1)C1CC1` [Compound Z-12] registered an IC50 greater than 10 µM.
`CC(c1cc(NC2CCN(N)C2)n2ncc(Cl)c2n1)C1CC1` (stereo not drawn) [Compound Z-48]: the concentration for half-maximal inhibition (IC50) was 2.22 µM. This counts as single-digit micromolar.
`CCC(c1cc(N[C@H]2CC[C@H](NC(C)=N)C2)n2nccc2n1)C1CC1` (stereo partly drawn) [Compound Z-69] displayed an IC50 greater than 10 µM.
As to `CC(C)(c1cc(N[C@H]2CC[C@H](N)C2)n2nccc2n1)C1CCC1` [Compound Z-39], the concentration for half-maximal inhibition (IC50) is greater than 10 µM.
In the case of `C=CCC(C)(C)c1cc(N[C@H]2CC[C@H](N)C2)n2nccc2n1` [Compound Z-57], the IC50 was greater than 10 µM.
On to `Cc1cnn2c(N[C@H]3CC[C@H](N)C3)cc(C(C)(C)C3CCC3)nc12` [Compound Z-40], for which the IC50 is greater than 10 µM.
In the case of `CC(=N)N[C@H]1CC[C@H](Nc2cc(C(C3CC3)C3CC3)nc3c(F)cnn23)C1` [Compound Z-73], the IC50 came to 3.68 µM.
Still for that read-out and setting: under `COC[C@H](c1cc(N[C@H]2CC[C@H](N)C2)n2nccc2n1)C1CC1` [Compound Z-44] stands greater than 10 µM.
On to `Cc1cnn2c(N[C@H]3CC[C@H](N)C3)cc([C@H](C)C3CC3)nc12` [Compound Z-32-P1], for which the IC50 is greater than 10 µM.
Take `CC(C)(c1cc(N[C@H]2CC[C@H](N)C2)n2ncc(F)c2n1)C1CC1` [Compound Z-36]: the midpoint of inhibition, the IC50, lay at 2.11 µM. This lies in the single-digit micromolar range.
For `CC(C)(c1cc(N[C@H]2CC[C@H](N)C2)n2ncc(Cl)c2n1)C1CCC1` [Compound Z-46], it took 1.81 µM to reach half-maximal inhibition (IC50). The IC50 values of the last two compounds are within 1.5-fold of each other.
Same read-out and setting: in the case of `CC(C)c1cnn2c(N[C@H]3CC[C@H](N)C3)cc(C(C3CC3)C3CC3)nc12` [Compound Z-24] it was 2.92 µM; in that of `Cc1cnn2c(N[C@H]3CC[C@H](N)C3)cc([C@@H](C)C3(C)CC3)nc12` [Compound Z-26-P2], greater than 10 µM; in that of `N[C@H]1CC[C@H](Nc2cc(C(F)C3CC3)nc3ccnn23)C1` (stereo partly drawn) [Compound Z-53], greater than 10 µM.

The target of the next assay is CDK9/CycT (Homo sapiens (Human), UniProt P50750). Nature of the assay: LANCE Ultra kinase activity inhibition assay, CDK9/CycT. The note with it: ATP 10 μM, highest compound concentration 1 μM. The assay is classed as biochemical. As for the experimental part:
as §1
The inhibiting effects on the kinase activity of CDK1/CycB (Carna bioscience, #04-102), CDK2/CycA (Carna bioscience, #04-103) and CDK9/CycT (Carna bioscience, #04-110) were determined by using LANCE Ultra method.
The kinase activity test was performed using a system (10 μL) containing the following components: substrate diluent prepared by mixing CDK kinase diluent, Ulight-Myelic basic protein (Perkin Elmer, #TRF-0109, hereinafter referred to as U-MBP) and ATP (Thermo scientific, #PV3227); and the compounds (i.e., analyte) prepared in the examples of the present disclosure. The assay for each kinase includes three test groups, i.e., a background group (Blank), a non-inhibition group (PC), and compound testing group (Test). The components included in each test group were as follows:
as §3, §4
1.33×reaction buffer: the components include 26.7 mM of MOPS, 6.67 mM of MgCl2, and 0.0133% Tween-20, which were stored in a 4° C. refrigerator and protected from light after preparation. Freshly prepared DTT was added to a final concentration of 5.33 mM before use.
as §5, §6
10 μL of test solution contains the following components: 16 mM of EDTA (Thermo scientific, #15575), 1 nM of phosphorylated U-MBP protein antibody (Perkin Elmer, #TRF-0201), and 1× detection damping fluid (Perkin Elmer, #CR97-100).
After the test solution was added, the solution was placed on a shaker and continually incubated at room temperature for 1 h in the dark. At the end of incubation, Victor X5 fluorescence microplate reader of Perkin Elmer was used to read the signal; the wavelength of excitation light was 320 nm, and the wavelengths of emission light were 615 nm and 665 nm. The inhibition rate was calculated as below.
1. For all groups, a value of 665 nm/615 nm (hereinafter referred to as Ratio) was calculated, and an inhibition rate was calculated based on the Ratio of each group;
as §8, §9
`N[C@H]1CC[C@H](Nc2cc(C(C3CC3)C3CC3)nc3ccnn23)C1` [Compound Z-1] returned an IC50 of 0.018 µM.
As for `Cc1cnn2c(N[C@H]3CC[C@H](N)C3)cc(CC3CC3)nc12` [Compound Z-52], the IC50 worked out at 0.032 µM. This IC50 lies about 1.8-fold higher than the previous one.
`C[C@@H](c1cc(N[C@H]2C[C@H](N)C2)n2nccc2n1)C1CC1` [Compound Z-62-P2] returned a half-maximal inhibitory concentration (IC50) of 0.024 µM.
In turn, `N[C@H]1CC[C@H](Nc2cc(C(C3CC3)C3CC3)nc3c(F)cnn23)C1` [Compound Z-15] yielded an IC50 of 0.005 µM.
The compound `CC(C)(c1cc(N[C@H]2CC[C@H](N)C2)n2nccc2n1)C1CC1` [Compound Z-12] yielded an IC50 of 0.02 µM.
Consider `CC(c1cc(NC2CCN(N)C2)n2ncc(Cl)c2n1)C1CC1` (stereo not drawn) [Compound Z-48], for which it took 0.068 µM to reach half-maximal inhibition (IC50).
Still for that read-out and setting: under `CCC(c1cc(N[C@H]2CC[C@H](NC(C)=N)C2)n2nccc2n1)C1CC1` (stereo partly drawn) [Compound Z-69] stands 0.058 µM.
Compound `CC(C)(c1cc(N[C@H]2CC[C@H](N)C2)n2nccc2n1)C1CCC1` [Compound Z-39] returned an IC50 of 0.034 µM.
On the same count and under the same terms, under `C=CCC(C)(C)c1cc(N[C@H]2CC[C@H](N)C2)n2nccc2n1` [Compound Z-57] stands 0.058 µM; under `Cc1cnn2c(N[C@H]3CC[C@H](N)C3)cc(C(C)(C)C3CCC3)nc12` [Compound Z-40], 0.048 µM.
Compound `CC(=N)N[C@H]1CC[C@H](Nc2cc(C(C3CC3)C3CC3)nc3c(F)cnn23)C1` [Compound Z-73] had an IC50 of 0.018 µM.
The compound `COC[C@H](c1cc(N[C@H]2CC[C@H](N)C2)n2nccc2n1)C1CC1` [Compound Z-44] yielded an IC50 of 0.082 µM.
The same measure, in the same setting: in the case of `Cc1cnn2c(N[C@H]3CC[C@H](N)C3)cc([C@H](C)C3CC3)nc12` [Compound Z-32-P1] it was 0.099 µM.
The compound `CC(C)(c1cc(N[C@H]2CC[C@H](N)C2)n2ncc(F)c2n1)C1CC1` [Compound Z-36] displayed an IC50 of 0.006 µM.
Same read-out and setting: in the case of `CC(C)(c1cc(N[C@H]2CC[C@H](N)C2)n2ncc(Cl)c2n1)C1CCC1` [Compound Z-46] it was 0.01 µM.
For the compound `CC(C)c1cnn2c(N[C@H]3CC[C@H](N)C3)cc(C(C3CC3)C3CC3)nc12` [Compound Z-24], the IC50 amounted to 0.084 µM.
As for `Cc1cnn2c(N[C@H]3CC[C@H](N)C3)cc([C@@H](C)C3(C)CC3)nc12` [Compound Z-26-P2], the IC50 amounted to 0.078 µM.
The compound `N[C@H]1CC[C@H](Nc2cc(C(F)C3CC3)nc3ccnn23)C1` (stereo partly drawn) [Compound Z-53] came in with a concentration for half-maximal inhibition (IC50) of 0.047 µM.
